Patent publication US12077503B2, “Substituted cyclic amides and their use as herbicides” (FMC CORPORATION, priority 2015, dated 2024)

What was measured:
Format in all cases: in vivo
[1] = test system: Kochia (Kochia scoparia); experiment: Test A preemergence; settings: for Plant response rating, Kochia: 125 g ai/ha, preemergence, 0 to 100 scale (0 no effect, 100 complete control); for Kochia plant response rating (0 to 100 scale, 0 is no effect, 100 is complete control): visual injury approx. 10 d
How it was run: (§1)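 Greenhouse, ~10 d after spray; visual injury vs untreated controls, 0 = no effect, 100 = complete control. Preemergence: directed soil spray over planted seeds. Postemergence: plants 2–10 cm, 1–2 leaf stage. Loam/sand blend. Compound in non-phytotoxic solvent with surfactant.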

[2] = test system: barnyardgrass (Echinochloa crus-galli); experiment: Test A preemergence; settings: for Plant response rating, Barnyardgrass: 125 g ai/ha, preemergence, 0 to 100 scale (0 no effect, 100 complete control); for Barnyardgrass plant response rating (0 to 100 scale, 0 is no effect, 100 is complete control): visual injury approx. 10 d
How it was run: as §1

[3] = test system: giant foxtail (Setaria faberii); experiment: Test A preemergence; settings: for Plant response rating, Foxtail, Giant: 125 g ai/ha, preemergence, 0 to 100 scale (0 no effect, 100 complete control); for Foxtail, Giant plant response rating (0 to 100 scale, 0 is no effect, 100 is complete control): visual injury approx. 10 d
How it was run: as §1

[4] = test system: pigweed (Amaranthus retroflexus); experiment: Test A preemergence; settings: for Plant response rating, Pigweed: 125 g ai/ha, preemergence, 0 to 100 scale (0 no effect, 100 complete control); for Pigweed plant response rating (0 to 100 scale, 0 is no effect, 100 is complete control): visual injury approx. 10 d
[5] = test system: ragweed (common ragweed, Ambrosia elatior); experiment: Test A preemergence; settings: for Plant response rating, Ragweed: 125 g ai/ha, preemergence, 0 to 100 scale (0 no effect, 100 complete control); for Ragweed plant response rating (0 to 100 scale, 0 is no effect, 100 is complete control): visual injury approx. 10 d
How it was run: as §1

[6] = test system: ryegrass, Italian (Italian ryegrass, Lolium multiflorum); experiment: Test A preemergence; settings: for Plant response rating, Ryegrass, Italian: 125 g ai/ha, preemergence, 0 to 100 scale (0 no effect, 100 complete control); for Ryegrass, Italian plant response rating (0 to 100 scale, 0 is no effect, 100 is complete control): visual injury approx. 10 d
How it was run: as §1

[7] = test system: Galium (catchweed bedstraw, Galium aparine); experiment: Test A postemergence; settings: postemergence; for Galium plant response rating: 125 g ai/ha, visual injury rating on 0 to 100 scale (0 no effect, 100 complete control), approx. 10 d; for Plant response rating, Galium: 500 g ai/ha, 0 to 100 scale, 0 no effect, 100 complete control
How it was run: as §1

[8] = test system: Kochia (Kochia scoparia); experiment: Test A postemergence; settings: postemergence; for Kochia plant response rating: 125 g ai/ha, visual injury rating on 0 to 100 scale (0 no effect, 100 complete control), approx. 10 d; for Plant response rating, Kochia: 500 g ai/ha, 0 to 100 scale, 0 no effect, 100 complete control
How it was run: as §1

[9] = test system: barnyardgrass (Echinochloa crus-galli); experiment: Test A postemergence; settings: for Barnyardgrass plant response rating: visual injury rating on 0 to 100 scale (0 no effect, 100 complete control)
How it was run: as §1

[10] = test system: blackgrass (Alopecurus myosuroides); experiment: Test A postemergence; settings: for Blackgrass plant response rating: visual injury rating on 0 to 100 scale (0 no effect, 100 complete control)
How it was run: as §1

[11] = test system: corn (Zea mays); experiment: Test A postemergence; settings: postemergence; for Corn plant response rating: 125 g ai/ha, visual injury rating on 0 to 100 scale (0 no effect, 100 complete control), approx. 10 d; for Plant response rating, Corn: 500 g ai/ha, 0 to 100 scale, 0 no effect, 100 complete control
How it was run: as §1

[12] = test system: giant foxtail (Setaria faberii); experiment: Test A postemergence; settings: postemergence; for Foxtail, Giant plant response rating: 125 g ai/ha, visual injury rating on 0 to 100 scale (0 no effect, 100 complete control), approx. 10 d; for Plant response rating, Foxtail, Giant: 500 g ai/ha, 0 to 100 scale, 0 no effect, 100 complete control
How it was run: as §1

[13] = test system: pigweed (Amaranthus retroflexus); experiment: Test A postemergence; settings: postemergence; for Pigweed plant response rating: 125 g ai/ha, visual injury rating on 0 to 100 scale (0 no effect, 100 complete control), approx. 10 d; for Plant response rating, Pigweed: 500 g ai/ha, 0 to 100 scale, 0 no effect, 100 complete control
How it was run: as §1

[14] = test system: ragweed (common ragweed, Ambrosia elatior); experiment: Test A postemergence; settings: postemergence; for Ragweed plant response rating: 125 g ai/ha, visual injury rating on 0 to 100 scale (0 no effect, 100 complete control), approx. 10 d; for Plant response rating, Ragweed: 500 g ai/ha, 0 to 100 scale, 0 no effect, 100 complete control
How it was run: as §1

[15] = test system: ryegrass, Italian (Italian ryegrass, Lolium multiflorum); experiment: Test A postemergence; settings: postemergence; for Ryegrass, Italian plant response rating: 125 g ai/ha, visual injury rating on 0 to 100 scale (0 no effect, 100 complete control), approx. 10 d; for Plant response rating, Ryegrass, Italian: 500 g ai/ha, 0 to 100 scale, 0 no effect, 100 complete control
How it was run: as §1

[16] = test system: wheat (Triticum aestivum); experiment: Test A postemergence; settings: postemergence; for Wheat plant response rating: 125 g ai/ha, visual injury rating on 0 to 100 scale (0 no effect, 100 complete control), approx. 10 d; for Plant response rating, Wheat: 500 g ai/ha, 0 to 100 scale, 0 no effect, 100 complete control
How it was run: as §1

[17] = test system: barnyardgrass (Echinochloa crus-galli); experiment: Test B flooded paddy test; settings: Flood, 500 g ai/ha; 0 to 100 scale where 0 is no effect and 100 is complete control; 13 to 15 d
How it was run: (§2)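 2-leaf plants; pots flooded 3 cm over soil; cpd added to paddy water; depth held; greenhouse 13–15 d; visual rating vs controls, 0 = no effect, 100 = complete control.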

[18] = test system: ducksalad (Heteranthera limosa); experiment: Test B flooded paddy test; settings: Flood, 500 g ai/ha; 0 to 100 scale where 0 is no effect and 100 is complete control; 13 to 15 d
How it was run: as §2

[19] = test system: rice (Oryra sativa); experiment: Test B flooded paddy test; settings: Flood, 500 g ai/ha; 0 to 100 scale where 0 is no effect and 100 is complete control; 13 to 15 d
How it was run: as §2

[20] = test system: sedge, umbrella (small-flower umbrella sedge, Cyperus difformis); experiment: Test B flooded paddy test; settings: Flood, 500 g ai/ha; 0 to 100 scale where 0 is no effect and 100 is complete control; 13 to 15 d
How it was run: as §2

[21] = Preemergence, 500 g ai/ha, 0 is no effect, 100 is complete control
[22] = 500 g ai/ha, postemergence, 0 to 100 scale, 0 no effect, 100 complete control
[23] = Postemergence, 125 g ai/ha, visual injury, 0 to 100 scale (0 no effect, 100 complete control), approx. 10 d
[24] = 125 g ai/ha, postemergence, approx. 10 d

SMILES | Plant response rating, Kochia [1] | Plant response rating, Barnyardgrass [2] | Plant response rating, Foxtail, Giant [3] | Plant response rating, Pigweed [4] | Plant response rating, Ragweed [5] | Plant response rating, Ryegrass, Italian [6] | Galium plant response rating [7] | Plant response rating, Galium [7] | Kochia plant response rating [8] | Plant response rating, Kochia [8] | Plant response rating, Barnyardgrass [9, 22] | Plant response rating, Blackgrass [10, 22] | Corn plant response rating [11] | Plant response rating, Corn [11] | Foxtail, Giant plant response rating [12] | Plant response rating, Foxtail, Giant [12] | Pigweed plant response rating [13] | Plant response rating, Pigweed [13] | Ragweed plant response rating [14] | Plant response rating, Ragweed [14] | further results
O=C1NCC(c2cccc(OCC(F)F)c2)C1C(=O)Nc1cccc(F)c1F (stereo not drawn) [Compound 389] | 0 | 70 | 80 | 0 | 0 | 0 | 0 | 0 | 0 | 0 | 70 | 0 | 30 | 50 | 60 | 70 | 0 | 20 | 0 | 0 | Kochia plant response rating (0 to 100 scale) [1, 21]: 0; Barnyardgrass plant response rating (0 to 100 scale) [2, 21]: 70; Foxtail, Giant plant response rating (0 to 100 scale) [3, 21]: 90; Pigweed plant response rating (0 to 100 scale) [4, 21]: 0; Ragweed plant response rating (0 to 100 scale) [5, 21]: 0; Ryegrass, Italian plant response rating (0 to 100 scale) [6, 21]: 0; Plant response rating, Barnyardgrass [9, 23]: 50; Plant response rating, Blackgrass [10, 23]: 0; Ryegrass, Italian plant response rating [15]: 0; Plant response rating, Ryegrass, Italian [15]: 0; Wheat plant response rating [16]: 0; Plant response rating, Wheat [16]: 0; Plant response rating, Barnyardgrass [17]: 60; Plant response rating, Ducksalad [18]: 100; Plant response rating, Rice [19]: 15; Plant response rating, Sedge, Umbrella [20]: 0
COc1ccc(NC(=O)C2C(=O)NCC2c2ccc(F)c(F)c2)c(F)c1 (stereo not drawn) [Compound 413] | 0 | 0 | 0 | 0 | 0 | 0 | 0 | 0 | 0 | 0 | 0 | 0 | 0 | 0 | 0 | 0 | 0 | 0 | 0 | 0 | Kochia plant response rating (0 to 100 scale, 0 is no effect, 100 is complete control) ([1]; Preemergence, 500 g ai/ha): 0; Barnyardgrass plant response rating (0 to 100 scale, 0 is no effect, 100 is complete control) ([2]; Preemergence, 500 g ai/ha): 0; Foxtail, Giant plant response rating (0 to 100 scale, 0 is no effect, 100 is complete control) ([3]; Preemergence, 500 g ai/ha): 0; Pigweed plant response rating (0 to 100 scale, 0 is no effect, 100 is complete control) ([4]; Preemergence, 500 g ai/ha): 0; Ragweed plant response rating (0 to 100 scale, 0 is no effect, 100 is complete control) ([5]; Preemergence, 500 g ai/ha): 0; Ryegrass, Italian plant response rating (0 to 100 scale, 0 is no effect, 100 is complete control) ([6]; Preemergence, 500 g ai/ha): 0; Barnyardgrass plant response rating [9, 24]: 0; Blackgrass plant response rating [10, 24]: 0; Ryegrass, Italian plant response rating [15]: 0; Plant response rating, Ryegrass, Italian [15]: 0; Wheat plant response rating [16]: 0; Plant response rating, Wheat [16]: 0; Plant response rating, Barnyardgrass [17]: 0; Plant response rating, Ducksalad [18]: 0; Plant response rating, Rice [19]: 0; Plant response rating, Sedge, Umbrella [20]: 0
Cc1cccc(NC(=O)C2C(=O)NCC2c2cccc(OC(F)F)c2)c1F (stereo not drawn) [Compound 420] | 0 | 70 | 90 | 0 | 0 | 0 | 0 | 0 | 0 | 0 | 90 | 0 | 0 | 0 | 70 | 80 | 0 | 0 | 0 | 0 | Kochia plant response rating (0 to 100 scale, 0 is no effect, 100 is complete control) ([1]; Preemergence, 500 g ai/ha): 30; Barnyardgrass plant response rating (0 to 100 scale, 0 is no effect, 100 is complete control) ([2]; Preemergence, 500 g ai/ha): 90; Foxtail, Giant plant response rating (0 to 100 scale, 0 is no effect, 100 is complete control) ([3]; Preemergence, 500 g ai/ha): 90; Pigweed plant response rating (0 to 100 scale, 0 is no effect, 100 is complete control) ([4]; Preemergence, 500 g ai/ha): 30; Ragweed plant response rating (0 to 100 scale, 0 is no effect, 100 is complete control) ([5]; Preemergence, 500 g ai/ha): 0; Ryegrass, Italian plant response rating (0 to 100 scale, 0 is no effect, 100 is complete control) ([6]; Preemergence, 500 g ai/ha): 0; Barnyardgrass plant response rating [9, 24]: 80; Blackgrass plant response rating [10, 24]: 0; Ryegrass, Italian plant response rating [15]: 0; Plant response rating, Ryegrass, Italian [15]: 0; Wheat plant response rating [16]: 0; Plant response rating, Wheat [16]: 0; Plant response rating, Barnyardgrass [17]: 65; Plant response rating, Ducksalad [18]: 85; Plant response rating, Rice [19]: 25; Plant response rating, Sedge, Umbrella [20]: 0
